Measured values published in patent publication US20030082101A1, “Accelerators for increasing the rate of formation of free radicals and reactive oxygen species” (Cavalier Discovery, priority 2001, published 2003).
Where a name gives a salt, the structure may show the parent alone.

Experiments:
Type in all cases: biochemical
deoxyribose [1] = assay: TBARS assay, chelants 0.07-0.11 mM during ultrasound exposure, ferrous iron (Example 3); conditions: 0.025 mM ferrous iron, 0.07-0.11 mM chelant, 0.01% hydrogen peroxide, pH 7.5, 30 W 2 MHz 10 min
Experimental: (§1) The following example uses the thiobarbituric acid-reactive substances (TBARS) assay to identify chelants that enhance radical production during ultrasound exposure. All solutions were prepared in pH 7.5 phosphate buffer containing approximately 2 mM deoxyribose, 0.01% hydrogen peroxide, 0.025 mM ferrous iron, and 0.07-0.11 mM chelant. Solutions were sonicated at 30 W, 2 MHz, 32-34 degrees Celsius for ten minutes using a PZT-8 1.8 cm diameter custom transducer. The sonicated solution was placed on an orbit shaker rotating at 25 RPM to ensure even sonication of the solution while the transducer was held stationary. Control solutions were placed in a controlled temperature bath at 32-34 degrees Celsius without sonication. After 10 minutes of treatment, 1 mL test solution was placed in a test tube followed by 2 mL of 1% 2-thiobarbituric acid and 2 mL of 2.8% trichloroacetic acid. The test tube was sealed and heated to 90 degrees Celsius for 30 minutes and allowed to cool to room temperature for 20 minutes. The absorbance at 532 nm was measured. The enhanced radical production during ultrasound exposure was determined by comparing the amount of deoxyribose degradation that occurs in the sonicated solution versus the control solution using the following equation: [formula]

ferritin = assay: Release of iron from ferritin assay, naphthoquinones, ultrasound (Example 8); conditions: iron release vs ultrasound without additive, 0.2 mg/mL ferritin, pH 7, 15 min
Experimental: The following example uses the release of iron from ferritin assay to show the effect of naphthoquinones on the release of iron from ferritin during ultrasound exposure. All solutions were prepared in pH 7 acetic acid solution containing approximately 0.2 mg/mL ferritin and 1 mM ferrozine, and the concentration of naphthoquinone indicated in the table below. Solutions were sonicated at 30 W, 2 MHz, 32-34 degrees Celsius for fifteen minutes using a PZT-8 1.8 cm diameter custom transducer. The sonicated solution was placed on an orbit shaker rotating at 25 RPM to ensure even sonication of the solution while the transducer was held stationary. Control solutions were placed in a controlled temperature bath at 32-34 degrees Celsius without sonication. After 15 minutes of treatment, an aliquot was tested for the presence of the iron-ferrozine chelate via absorbance at 562 nm. The amount of iron released was determined using the control solution corrected absorbance (subtract the absorbance of the control solution from the absorbance of the ultrasound solution). The corrected absorbance was compared to a ferrozine-iron standard curve to determine the amount of iron released. The enhanced iron release due to ultrasound exposure in the presence of the naphthoquinone was compared to the amount of enhanced iron release due to ultrasound exposure in the absence of any additives as follows: [formula]

deoxyribose [2] = assay: TBARS assay, chelants 0.07-0.11 mM during ultrasound exposure, ferric iron (Example 4); conditions: 0.02-0.03 mM ferric iron, 0.07-0.11 mM chelant, 0.01% hydrogen peroxide, pH 7.5, 30 W 2 MHz 10 min
Experimental: as §1, with “0.02-0.03” for “0.025”, “ferric” for “ferrous”

[3] = Free radical production when exposed to ultrasound and a metal (statements in the description); conditions: for free radical production: when exposed to ultrasound and a metal
deoxyribose [4] = assay: TBARS assay, anti tumor antibiotics, ultrasound (Example 12); conditions: 0.005 mM ferrous iron, 0.005 mM ferric iron, 15 min
Experimental: The following example uses the thiobarbituric acid-reactive substances (TBARS) assay to identify anti tumor antibiotics that enhance radical production during ultrasound. All solutions are prepared in pH 7.5 phosphate buffer containing approximately 2 mM deoxyribose, 0.01% hydrogen peroxide, 0.005 mM ferrous iron, 0.005 mM ferric iron, and the additives indicated in the table below. Solutions are sonicated at 30 W, 2 MHz, 32-34 degrees Celsius for fifteen minutes using a PZT-8 1.8 cm diameter custom transducer. The sonicated solution is placed on an orbit shaker rotating at 25 RPM to ensure even sonication of the solution while the transducer is held stationary. Control solutions are placed in a controlled temperature bath at 32-34 degrees Celsius without sonication. After 15 minutes of treatment, 1 mL test solution was placed in a test tube followed by 2 mL of 1% 2-thiobarbituric acid and 2 mL of 2.8% trichloroacetic acid. The test tube is sealed and heated to 90 degrees Celsius for 30 minutes and allowed to cool to room temperature for 20 minutes. The absorbance at 532 nm is measured. The enhanced radical production during ultrasound exposure is determined by comparing the amount of deoxyribose degradation that occurs in the sonicated solution versus the control solution using the following equation: [formula]

deoxyribose [5] = assay: TBARS assay, chelants during ultrasound exposure, ferrous iron (Example 1); conditions: 0.025 mM ferrous iron, 0.03-0.04 mM chelant, 0.01% hydrogen peroxide, pH 7.5, 30 W 2 MHz 10 min
Experimental: as §1, with “and 0.03-0.04” for “and 0.07-0.11”, “exposure is” for “exposure was”

deoxyribose [6] = assay: TBARS assay, chelants during ultrasound exposure, ferric iron (Example 2); conditions: 0.02-0.03 mM ferric iron, 0.04-0.05 mM chelant, 0.01% hydrogen peroxide, pH 7.5, 30 W 2 MHz 10 min
Experimental: as §1, with “0.02-0.03” for “0.025”, “ferric” for “ferrous”, “0.04-0.05” for “0.07-0.11”

Molecule: c1cnc2c(c1)ccc1cccnc12 [1,10 Phenanthroline]
- % Ultrasound Mediated Activity vs Control (deoxyribose [1]): 33%

Molecule: CC(C)=CCC1=C(O)C(=O)c2ccccc2C1=O [2-hydroxy-3-(3-methyl-2-butenyl)-1,4-naphthoquinone]
- % Ultrasound Mediated Activity (ferritin; 15 uM additive): 72%

Molecule: CC1=CC(=O)c2ccccc2C1=O [2-methyl-1,4-naphthoquinone (menadione), 2-methyl-1,4-naphthoquinone]
- % Ultrasound Mediated Activity (ferritin; 18 uM additive): 5.3%

Molecule: O=S(=O)(O)c1ccc(-c2nnc(-c3ccccn3)nc2-c2ccc(S(=O)(=O)O)o2)o1 [3-(2-Pyridyl)-5,6-bis(5-sulfo-2-furyl)-1,2,4-triazine]
- % Ultrasound Mediated Activity vs Control (deoxyribose [1]): 50%
- % Ultrasound Mediated Activity vs Control (deoxyribose [2]): 207%

Molecule: O=S(=O)(O)c1ccc(-c2nnc(-c3ccccn3)nc2-c2ccc(S(=O)(=O)O)cc2)cc1 [3-(2-Pyridyl)-5,6-diphenyl-1,2,4-triazine-4,4-disulfonic acid]
- % Ultrasound Mediated Activity vs Control (deoxyribose [1]): 45%
- % Ultrasound Mediated Activity vs Control (deoxyribose [2]): 136%

Molecule: Nc1ncnc2c1ncn2[C@@H]1O[C@H](COP(=O)(O)OP(=O)(O)O)[C@@H](O)[C@H]1O [Adenosine diphosphate (ADP), Adenosine diphosphate]
- % Ultrasound Mediated Activity vs Control (deoxyribose [1]): 26%
- % Ultrasound Mediated Activity vs Control (deoxyribose [2]): 280%
- free radical production [3]: increase free radical production

Molecule: Cc1c(C(=O)O)c(O)cc2c1C(=O)c1c(O)c([C@@H]3O[C@H](CO)[C@@H](O)[C@H](O)[C@H]3O)c(O)c(O)c1C2=O [Carminic acid]
- % Ultrasound Mediated Activity vs Control (deoxyribose [4]; 0.025 mM additive): >100%

Molecule: COC1C(O)CC(OC2CC(Oc3cc4cc5c(c(O)c4c(O)c3C)C(=O)[C@@H](OC3CC(OC4CC(OC6CC(C)(O)C(OC(C)=O)C(C)O6)C(O)C(C)O4)C(O)C(C)O3)[C@H]([C@H](OC)C(=O)[C@@H](O)[C@@H](C)O)C5)OC(C)C2OC(C)=O)OC1C (some centres unmarked) [Chromomycin]
- % Ultrasound Mediated Activity vs Control (deoxyribose [4]; 0.025 mM additive): >100%

Molecule: O=C(O)CC(O)(CC(=O)O)C(=O)O [Citrate]
- % Ultrasound Mediated Activity vs Control (deoxyribose [1]): 31%
- % Ultrasound Mediated Activity vs Control (deoxyribose [2]): 161%
- free radical production [3]: increase free radical production

Molecule: COc1cccc2c1C(=O)c1c(O)c3c(c(O)c1C2=O)C[C@@](O)(C(C)=O)C[C@@H]3O[C@H]1C[C@H](N)[C@H](O)[C@H](C)O1 [Daunomycin]
- % Ultrasound Mediated Activity vs Control (deoxyribose [4]; 0.1 mM additive): >100%

Molecule: CC(=O)N(O)CCCCCNC(=O)CCC(=O)N(O)CCCCCNC(=O)CCC(=O)N(O)CCCCCN [Desferrioxamine mesylate]
- % Ultrasound Mediated Activity vs Control (deoxyribose [5]): 92%
- % Ultrasound Mediated Activity vs Control (deoxyribose [6]): 81%

Molecule: O=C(O)CN(CC(=O)O)C1CCCCC1N(CC(=O)O)CC(=O)O (centres unmarked) [Diaminocyclohexane-N,N,N′,N′-tetraacetic acid]
- % Ultrasound Mediated Activity vs Control (deoxyribose [5]): 61%
- % Ultrasound Mediated Activity vs Control (deoxyribose [6]): 446%

Molecule: O=C(O)CN(CCN(CC(=O)O)CC(=O)O)CCN(CC(=O)O)CC(=O)O [Diethylenetriaminepentaacetic acid]
- % Ultrasound Mediated Activity vs Control (deoxyribose [6]): 177%

Molecule: COc1cccc2c1C(=O)c1c(O)c3c(c(O)c1C2=O)C[C@@](O)(C(=O)CO)C[C@@H]3O[C@H]1C[C@H](N)[C@@H](O)[C@H](C)O1 [Epirubicin]
- % Ultrasound Mediated Activity vs Control (deoxyribose [4]; 0.1 mM additive): >100%

Molecule: O=C(O)CN(CCOCCOCCN(CC(=O)O)CC(=O)O)CC(=O)O [Ethylene glycol-bis(2-aminoethyl)-N,N,N′,N′-tetraacetic acid]
- % Ultrasound Mediated Activity vs Control (deoxyribose [5]): 29%
- % Ultrasound Mediated Activity vs Control (deoxyribose [6]): 520%

Molecule: CO[C@@]12[C@H](COC(N)=O)C3=C(C(=O)C(C)=C(N)C3=O)N1C[C@@H]1N[C@@H]12 [Mitomycin C]
- % Ultrasound Mediated Activity vs Control (deoxyribose [4]; 0.025 mM additive): >100%

Molecule: O=C(O)CN(CCO)CCN(CC(=O)O)CC(=O)O [N-(2-Hydroxyethyl)ethylenediamine-N,N′,N′-triacetic acid]
- % Ultrasound Mediated Activity vs Control (deoxyribose [5]): 34%
- % Ultrasound Mediated Activity vs Control (deoxyribose [6]): 224%

Molecule: O=C(O)CN(CC(=O)O)CC(=O)O [Nitriloacetic acid]
- % Ultrasound Mediated Activity vs Control (deoxyribose [5]): 69%
- % Ultrasound Mediated Activity vs Control (deoxyribose [6]): 238%

Molecule: O=C(O)c1ccccn1 [Picolinic Acid]
- % Ultrasound Mediated Activity vs Control (deoxyribose [1]): 53%
- % Ultrasound Mediated Activity vs Control (deoxyribose [2]): 175%

Molecule: COC1=C(N)C(=O)c2nc(-c3nc(C(=O)O)c(C)c(-c4ccc(OC)c(OC)c4O)c3N)ccc2C1=O [Streptonigrin]
- % Ultrasound Mediated Activity vs Control (deoxyribose [4]; 0.025 mM additive): >100%

Molecule: O=C(O)P(=O)(O)O [phosphonoformic acid]
- radical production ([3]; added to an iron/EDTA system, ultrasound): radical production was increased

Molecule: O=S([O-])[O-].[Na+].[Na+] [sodium sulfite]
- free radical production [3]: increase free radical production

Molecule: Olivomycin
- % Ultrasound Mediated Activity vs Control (deoxyribose [4]; 0.025 mM additive): >100%
